The target of data set [1] is T1, Protein Aster-A (Homo sapiens, UniProt Q96CP6).
T1 sequence (Q96CP6 whole entry): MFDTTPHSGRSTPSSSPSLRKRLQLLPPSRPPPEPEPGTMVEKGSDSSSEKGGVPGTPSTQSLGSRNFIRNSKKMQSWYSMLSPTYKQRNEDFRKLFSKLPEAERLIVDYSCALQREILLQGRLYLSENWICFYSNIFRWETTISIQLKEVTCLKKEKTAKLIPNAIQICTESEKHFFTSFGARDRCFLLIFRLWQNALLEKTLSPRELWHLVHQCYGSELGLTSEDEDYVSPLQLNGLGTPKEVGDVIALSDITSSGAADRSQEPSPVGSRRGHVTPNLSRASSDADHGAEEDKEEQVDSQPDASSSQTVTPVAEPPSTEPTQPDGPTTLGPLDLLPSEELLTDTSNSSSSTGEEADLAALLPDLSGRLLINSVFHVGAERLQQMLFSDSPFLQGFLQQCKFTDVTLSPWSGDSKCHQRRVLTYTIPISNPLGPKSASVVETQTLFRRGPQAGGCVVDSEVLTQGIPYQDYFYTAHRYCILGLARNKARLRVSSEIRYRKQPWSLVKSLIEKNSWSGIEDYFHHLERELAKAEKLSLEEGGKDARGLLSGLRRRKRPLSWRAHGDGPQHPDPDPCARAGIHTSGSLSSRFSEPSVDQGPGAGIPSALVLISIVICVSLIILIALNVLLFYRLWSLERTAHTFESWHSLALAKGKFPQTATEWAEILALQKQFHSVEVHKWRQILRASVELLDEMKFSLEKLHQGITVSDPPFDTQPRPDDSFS
The data set is described as follows: Binding affinity to aster A (unknown origin) assessed as change in fluorescence intensity.

In data set [2] the target is T1, Protein Aster-A. The data set is described as follows: Binding affinity to aster A (unknown origin) by fluorescence polarization method. A general note: Polarisation of emitted light reports the rotation of a fluorescent probe.
Data set [3] deals with T2, Protein Aster-A (Homo sapiens) (UniProt Q96CP6).
T2 sequence (whole entry): T1 sequence (Q96CP6 whole entry)
The data set is described as follows: Binding affinity to aster A (unknown origin) assessed as change in melting temperature by differential scanning fluorimetry analysis. Background: In DSF a fluorescence change marks the thermal transition of the protein.

The test system of data set [4] is MCF7. The data set is described as follows: Inhibition of autophagy in human MCF7 cells expressing eGFP-LC3. Format: functional, cell-based.
The target in data set [5] is Oxysterol-binding protein-related protein 1 (OSBPL1A) (Homo sapiens) (UniProt Q9BXW6). The data set is described as follows: Binding affinity to ORP1 (unknown origin).
Chain of Oxysterol-binding protein-related protein 1 (OSBPL1A) (Homo sapiens) (Q9BXW6 whole entry, looked up): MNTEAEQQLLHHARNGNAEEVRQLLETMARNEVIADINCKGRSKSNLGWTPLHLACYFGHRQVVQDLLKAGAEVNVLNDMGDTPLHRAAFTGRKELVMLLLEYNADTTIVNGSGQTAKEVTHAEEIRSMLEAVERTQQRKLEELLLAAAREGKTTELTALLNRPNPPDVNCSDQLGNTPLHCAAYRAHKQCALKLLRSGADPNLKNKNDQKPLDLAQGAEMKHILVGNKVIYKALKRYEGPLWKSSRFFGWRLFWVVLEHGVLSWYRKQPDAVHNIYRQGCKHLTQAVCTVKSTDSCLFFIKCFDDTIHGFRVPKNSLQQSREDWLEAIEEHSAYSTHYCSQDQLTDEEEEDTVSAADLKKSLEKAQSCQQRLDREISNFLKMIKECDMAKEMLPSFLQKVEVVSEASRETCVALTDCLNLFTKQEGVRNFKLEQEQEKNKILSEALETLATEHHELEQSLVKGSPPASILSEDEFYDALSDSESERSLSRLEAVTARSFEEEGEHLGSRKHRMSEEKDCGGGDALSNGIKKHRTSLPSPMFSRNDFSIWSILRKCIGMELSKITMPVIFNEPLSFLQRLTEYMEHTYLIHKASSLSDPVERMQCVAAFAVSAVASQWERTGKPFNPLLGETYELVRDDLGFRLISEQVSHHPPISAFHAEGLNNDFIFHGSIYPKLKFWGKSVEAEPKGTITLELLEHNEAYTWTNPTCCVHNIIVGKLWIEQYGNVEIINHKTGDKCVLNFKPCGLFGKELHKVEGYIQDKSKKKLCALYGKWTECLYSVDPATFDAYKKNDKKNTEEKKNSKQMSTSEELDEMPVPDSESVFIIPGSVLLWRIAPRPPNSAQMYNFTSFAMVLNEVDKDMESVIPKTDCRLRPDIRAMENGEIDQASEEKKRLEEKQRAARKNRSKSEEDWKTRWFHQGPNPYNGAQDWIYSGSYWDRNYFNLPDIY
Data set [6] is filed under the species Homo sapiens. Kind of data set: Binding affinity to aster B (unknown origin).
Data set [7] deals with Protein Aster-C (Homo sapiens) (UniProt Q8IYS0). The data set is described as follows: Binding affinity to aster C (unknown origin).
Chain of Protein Aster-C (Homo sapiens) (Q8IYS0 whole entry): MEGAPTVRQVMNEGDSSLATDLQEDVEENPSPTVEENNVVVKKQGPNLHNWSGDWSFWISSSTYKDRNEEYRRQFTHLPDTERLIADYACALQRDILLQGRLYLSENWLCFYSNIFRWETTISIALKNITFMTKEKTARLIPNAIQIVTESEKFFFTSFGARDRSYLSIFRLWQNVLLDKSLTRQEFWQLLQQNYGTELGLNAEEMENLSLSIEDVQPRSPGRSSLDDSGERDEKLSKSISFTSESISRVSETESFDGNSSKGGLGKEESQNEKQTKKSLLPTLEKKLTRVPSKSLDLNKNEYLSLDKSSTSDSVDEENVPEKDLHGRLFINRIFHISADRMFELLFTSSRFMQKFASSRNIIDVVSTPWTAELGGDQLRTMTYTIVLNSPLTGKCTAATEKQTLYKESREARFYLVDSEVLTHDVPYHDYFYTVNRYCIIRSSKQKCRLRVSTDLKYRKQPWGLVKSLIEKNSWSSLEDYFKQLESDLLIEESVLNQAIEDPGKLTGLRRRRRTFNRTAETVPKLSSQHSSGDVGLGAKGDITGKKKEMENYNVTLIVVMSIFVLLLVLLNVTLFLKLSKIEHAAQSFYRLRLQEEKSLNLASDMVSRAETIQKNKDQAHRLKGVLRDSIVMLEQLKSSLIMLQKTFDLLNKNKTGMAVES
Data set [8] addresses T3, Steroidogenic acute regulatory protein, mitochondrial (Homo sapiens) (UniProt P49675).
T3 sequence (whole entry): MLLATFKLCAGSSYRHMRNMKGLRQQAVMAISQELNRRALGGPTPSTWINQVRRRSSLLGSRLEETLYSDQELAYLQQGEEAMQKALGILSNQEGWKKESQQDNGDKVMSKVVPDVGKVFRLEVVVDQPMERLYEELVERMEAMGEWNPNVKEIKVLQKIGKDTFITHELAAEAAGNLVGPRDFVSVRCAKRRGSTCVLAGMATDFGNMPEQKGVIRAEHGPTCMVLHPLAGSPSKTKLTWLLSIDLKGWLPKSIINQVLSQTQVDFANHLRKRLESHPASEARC
Kind of data set: Binding affinity to STARD1 (unknown origin).

For data set [9], the target named is T4, Protein cereblon/Protein Aster-A (Homo sapiens, UniProt Q96SW2+Q96CP6). The data set is described as follows: PROTAC activity at CRBN/aster A in human HeLa cells at 10 uM incubated for 18 hrs by Western blotting analysis. Format: cell-based.
Target sequence in this assay (Q96SW2 whole entry, looked up, one chain of several): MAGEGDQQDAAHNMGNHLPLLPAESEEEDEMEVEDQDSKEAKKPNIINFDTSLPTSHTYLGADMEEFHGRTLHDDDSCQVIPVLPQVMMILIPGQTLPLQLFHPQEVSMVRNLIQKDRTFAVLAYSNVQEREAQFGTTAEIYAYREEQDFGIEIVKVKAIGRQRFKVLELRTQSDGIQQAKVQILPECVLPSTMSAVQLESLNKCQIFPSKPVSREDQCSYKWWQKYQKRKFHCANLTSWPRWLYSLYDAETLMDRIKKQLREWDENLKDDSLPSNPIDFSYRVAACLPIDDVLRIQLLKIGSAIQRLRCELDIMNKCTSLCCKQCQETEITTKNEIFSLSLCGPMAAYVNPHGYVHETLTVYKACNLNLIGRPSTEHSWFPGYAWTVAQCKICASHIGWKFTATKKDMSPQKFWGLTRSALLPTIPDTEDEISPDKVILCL
The target of data set [10] is T4, Protein cereblon/Protein Aster-A. Kind of data set: PROTAC activity at CRBN/aster A in human HeLa cells assessed as aster A degradation incubated for 18 hrs by Western blotting analysis. Format: cell-based. Background: Immunoblotting shows a protein as a band on a membrane.
For data set [11] the target is unchanged. The data set is described as follows: PROTAC activity at CRBN/aster A in human HeLa cells assessed as maximum degradation incubated for 18 hrs by Western blotting analysis. Format: cell-based.
Target sequence in this assay (Q96SW2 whole entry, looked up, one chain of several): as above
The target is the same in data set [12]. The data set is described as follows: PROTAC activity at CRBN/aster A in human HeLa cells assessed as aster A degradation at 10 uM incubated for 18 hrs in presence of MLN4924 by Western blotting analysis. Format: cell-based.
Target sequence in this assay (Q96SW2 whole entry, looked up, one chain of several): as above
Data set [13] shares this target. The data set is described as follows: PROTAC activity at CRBN/aster A in human HeLa cells assessed as aster A degradation at 10 uM incubated for 18 hrs in presence of MG132 by Western blotting analysis. Format: cell-based.
Target sequence in this assay (Q96SW2 whole entry, looked up, one chain of several): as above
The target in data set [14] is T2, Protein Aster-A (Homo sapiens). The data set is described as follows: Induction of aster A degradation in human MCF7 cells. Format: cell-based.
The target is the same in data set [15]. The data set is described as follows: Induction of aster A degradation in human A549 cells. Format: cell-based.
In data set [16] the target is T1, Protein Aster-A. Kind of data set: Displacement of tert-butyl 2-(4-((3-(4-(3-((2-(2,6-dioxopiperidin-3-yl)-1,3-dioxoisoindolin-4-yl)amino)propoxy)butoxy)propyl)carbamoyl)benzamido)-3a,6,7,7a-tetrahydrothiazolo[5,4-c]pyridine-5(4H)-carboxylate from aster A (unknown origin) assessed as change in fluorescence intensity.
Data set [17] deals with T1, Protein Aster-A. The data set is described as follows: Displacement of 22-NBD-Chol from aster A (unknown origin) by fluorescence polarization method.
A short description of data set [18]: Drug uptake in human HeLa cells assessed as increase in intracellular fluorescence at 10 uM incubated for 1 hr by […] microscopic analysis. Format: ADME, cell-based.

The source made the active and inactive calls. The calls are words filed in the database; no cut-off is given here.

The Kd is a measure of binding affinity in units of concentration. The ΔTm is the shift of the melting midpoint relative to a reference. Consider `CC(C)(C)OC(=O)N1CCC2N=C(NC(=O)c3ccc(C(=O)NCCCOCCOCCOCCCNc4cccc5c4C(=O)N(C4CCC(=O)NC4=O)C5=O)cc3)SC2C1` (configuration not stated), for which the figures for the dissociation constant Kd in data set [1] and in [2] were 0.086 µM and 0.068 µM, respectively. Besides, the ΔTm in data set [3] turned out to be 5.8 °C. In data set [4], the “Autophagy inhibition (active/not active)” value is “Active”. Besides, in data set [5], the outcome was Active.
Consider `CC(C)(C)OC(=O)NCCOCCOCCNc1cccc2c1C(=O)N(C1CCC(=O)NC1=O)C2=O` (configuration not stated), for which the Kd in [1] and in [2] was > 5 µM in each case. The shift in melting temperature (ΔTm) in [3] amounted to 0.3 °C.
Broadly, the DC50 is the concentration at which degradation of the target reaches its halfway point. The Emax is the maximal effect, on the per cent scale that the assay sets. In the case of `CC(C)(C)OC(=O)N1CCC2N=C(NC(=O)c3ccc(C(=O)NCCCOCCCCOCCCNc4cccc5c4C(=O)N(C4CCC(=O)NC4=O)C5=O)cc3)SC2C1` (configuration not stated), the Kd came to 0.083 µM in data set [1] and 0.09 µM in data set [2]. The ΔTm in data set [3] turned out to be 5.7 °C. In addition, the result in [6], in [7], in data set [8], in data set [12], in data set [13] and in data set [14] was inactive. For the same molecule, in [15], the outcome was inactive. Also, the figures for the Activity in data set [9] and in data set [10] were 50% and “Dose-Dependent Effect”, respectively. The DC50 in data set [10] was found to be 4.8 µM. Besides, the Emax in data set [11] was 60%. The “Autophagy inhibition (active/not active)” value in data set [4] is “Active”. Further, the result in data set [5] was Active.
Take `CC(C)(C)OC(=O)N1CCC2N=C(NC(=O)c3ccc(C(=O)NCCOCCOCCNc4cccc5c4C(=O)N(C4CCC(=O)NC4=O)C5=O)cc3)SC2C1` (configuration not stated): the dissociation constant Kd is > 5 µM in data set [1] and 0.149 µM in data set [2]. The ΔTm in data set [3] was found to be 4 °C. For the same molecule, the “Autophagy inhibition (active/not active)” value in data set [4] was “Active”. Besides, the outcome in [5] was Active.
As usually defined, the IC50 is the concentration that gives 50% inhibition. As for `Cc1ncsc1-c1ccc(CNC(=O)[C@H]2C[C@H](O)CN2C(=O)[C@@H](NC(=O)COCCOCCNC(=O)c2ccc(C(=O)Nc3nc4c(s3)CN(C(=O)OC(C)(C)C)CC4)cc2)C(C)(C)C)cc1`, the ΔTm in [3] came out at 4.4 °C. In addition, the figures for the IC50 in [16] and in data set [17] were 1.47 µM and 3.7 µM, respectively.
`CC(C)(C)OC(=O)N1CCC2N=C(NC(=O)c3ccc(C(=O)NCCOCCOCCOCCNc4cccc5c4C(=O)N(C4CCC(=O)NC4=O)C5=O)cc3)SC2C1` (configuration not stated): the dissociation constant Kd in data set [1] came out at 0.088 µM; in data set [2], 0.049 µM. For the same molecule, the ΔTm in data set [3] worked out at 4.9 °C. Besides, the result in data set [5] was Active.
Take `CC12CCC(O)CC1CCc1cnn(-c3ccccc3F)c12` (configuration not stated): the ΔTm in data set [3] came out at 0.2 °C. Further, the IC50 in [16] and in data set [17] was > 10 µM in each case.
Consider `CC(C)(C)OC(=O)N1CCC2N=C(NC(=O)c3ccc(C(=O)NCCCOCCOCCCNc4cccc5c4C(=O)N(C4CCC(=O)NC4=O)C5=O)cc3)SC2C1` (configuration not stated), for which the figures for the Kd in [1] and in data set [2] were 0.11 µM and 0.037 µM, respectively. Further, the ΔTm in data set [3] is 5 °C. For the same molecule, the outcome in [5] was Active.
Take `Cc1ncsc1-c1ccc(CNC(=O)[C@H]2C[C@H](O)CN2C(=O)[C@@H](NC(=O)CCCCCCNC(=O)c2ccc(C(=O)Nc3nc4c(s3)CN(C(=O)OC(C)(C)C)CC4)cc2)C(C)(C)C)cc1`: the ΔTm in [3] came out at 3.6 °C. Besides, the 50% inhibitory concentration (IC50) in data set [16] was 2.75 µM; in data set [17], 4.68 µM.
In the case of `CC(C)(C)OC(=O)N1CCC2N=C(NC(=O)c3ccc(C(=O)NCCCCCCNc4cccc5c4C(=O)N(C4CCC(=O)NC4=O)C5=O)cc3)SC2C1` (configuration not stated), the Kd is 0.765 µM in data set [1] and 0.745 µM in data set [2]. Moreover, the ΔTm in data set [3] is 3.2 °C. The Drug uptake entry in data set [18] is given as “Active”. Besides, in data set [4], the “Autophagy inhibition (active/not active)” value was “inactive”. Further, the result in data set [5] was Active.
Consider `CC(C)(C)OC(=O)N1CCC2N=C(NC(=O)c3ccc(C(=O)NCCCCCCCCCCNc4cccc5c4C(=O)N(C4CCC(=O)NC4=O)C5=O)cc3)SC2C1` (configuration not stated), for which the Kd in data set [1] and in data set [2] was > 5 µM each time. For the same molecule, the ΔTm in [3] is 1.2 °C. Besides, the “Autophagy inhibition (active/not active)” value in data set [4] is “inactive”. In addition, the result in data set [5] was Active.
On to `CCN(CC)CCO[C@H]1CC[C@@]2(C)C(=CC[C@@H]3[C@@H]2CC[C@]2(C)C(=O)CC[C@@H]32)C1`, for which the ΔTm in data set [3] amounted to 5.6 °C.
Regarding `Nc1cccc2c1C(=O)N(C1CCC(=O)NC1=O)C2=O` (configuration not stated) [POMALIDOMIDE], the Kd in data set [1] and in data set [2] was > 5 µM throughout. Besides, the ΔTm in [3] came to 0.1 °C.
As for `CC(C)Oc1ccc(C(=O)Nc2nc3c(s2)CN(C(=O)OC(C)(C)C)CC3)cc1`, the ΔTm in data set [3] came out at 6.8 °C. In addition, the IC50 in data set [16] was determined as 1.18 µM; in data set [17], 1.93 µM.
On to `Cc1ncsc1-c1ccc(CNC(=O)[C@H]2C[C@H](O)CN2C(=O)[C@@H](NC(=O)CCCCCCCCCNC(=O)c2ccc(C(=O)Nc3nc4c(s3)CN(C(=O)OC(C)(C)C)CC4)cc2)C(C)(C)C)cc1`, for which the ΔTm in data set [3] stood at 1.6 °C. The IC50 in data set [16] and in data set [17] was > 10 µM throughout.

These data come from ChEMBL document CHEMBL5550107, “Fluorescent probes and degraders of the sterol transport protein Aster-A” (Bioorg Med Chem, 2024).
